{
  "source": "patent US6949536B2",
  "about": "“Sulfonylbenzene compounds as anti-inflammatory/analgesic agents” (Pfizer, Inc., priority 1998, dated 2005)",
  "data": [
    {"compound": "Cc1ccc(-c2ccc(S(C)(=O)=O)cc2)n1-c1ccc(-c2ccc[nH]2)cc1", "note": "[Example 47, 2-Methyl-5-[4-(methylsulfonyl)phenyl]-1-[4-(2-pyrrolyl)phenyl]-1H-pyrrole]", "values": [
      {"measurement": "melting point", "value": "225 to 227", "unit": "°C"}
    ]},
    {"compound": "Cc1ccc(-c2ccc(S(C)(=O)=O)cc2)n1-c1ccc(-c2nccs2)cc1", "note": "[Example 49, 2-Methyl-5-[4-(methylsulfonyl)phenyl]-1-[4-(2-thiazolyl)phenyl]-1H-pyrrole]", "values": [
      {"measurement": "melting point", "value": "190 to 191", "unit": "°C"}
    ]},
    {"compound": "Cc1nc(-c2ccc(-c3cccs3)cc2)c(-c2ccc(S(C)(=O)=O)cc2)o1", "note": "[Example 50, 2-Methyl-5-[4-(methylsulfonyl)phenyl]-4-[4-(2-thienyl)phenyl]oxazole]", "values": [
      {"measurement": "melting point", "value": "183 to 185", "unit": "°C"}
    ]},
    {"compound": "Cc1nc(-c2ccc(-c3ccco3)cc2)c(-c2ccc(S(C)(=O)=O)cc2)o1", "note": "[Example 51, 4-[4-(2-Furyl)phenyl]-2-methyl-5-[4-(methylsulfonyl)phenyl]oxazole]", "values": [
      {"measurement": "melting point", "value": "143 to 144", "unit": "°C"}
    ]},
    {"compound": "CS(=O)(=O)c1ccc(-n2cc(C(F)(F)F)nc2-c2ccc(-c3cccs3)cc2)cc1", "note": "[Example 52, 1-[4-(Methylsulfonyl)phenyl]-2-[4-(2-thienyl)phenyl]-4-(trifluoromethyl)-1H-imidazole]", "values": [
      {"measurement": "melting point", "value": "95 to 97", "unit": "°C"}
    ]},
    {"compound": "CS(=O)(=O)c1ccc(-n2cc(C(F)(F)F)nc2-c2ccc(-c3ccco3)cc2)cc1", "note": "[Example 53, 2-[4-(2-Furyl)phenyl]-1-[4-(methylsulfonyl)phenyl]-4-(trifluoromethyl)-1H-imidazole]", "values": [
      {"measurement": "melting point", "value": "82 to 84", "unit": "°C"}
    ]},
    {"compound": "Cc1cc(-c2ccc(S(C)(=O)=O)cc2)n(-c2ccc(-c3ccoc3)cc2)c1", "note": "[Example 55, 1-[4-(3-Furyl)phenyl]-4-methyl-2-[4-(methylsulfonyl)phenyl]-1H-pyrrole]", "values": [
      {"measurement": "melting point", "value": "154 to 156", "unit": "°C"}
    ]},
    {"compound": "Cc1cc(-c2ccc(-c3ccoc3)cc2)n(-c2ccc(S(C)(=O)=O)cc2)c1", "note": "[Example 56, 2-[4-(3-Furyl)phenyl]-4-methyl-1-[4-(methylsulfonyl)phenyl]-1H-pyrrole]", "values": [
      {"measurement": "melting point", "value": "193 to 195", "unit": "°C"}
    ]},
    {"compound": "Cc1cc(-c2ccc(S(C)(=O)=O)cc2)n(-c2ccc(-c3ccco3)cc2)c1", "note": "[Example 58, 1-[4-(2-Furyl)phenyl]-4-methyl-2-[4-(methylsulfonyl)phenyl]-1H-pyrrole]", "values": [
      {"measurement": "melting point", "value": "133 to 135", "unit": "°C"}
    ]},
    {"compound": "Cc1cc(-c2ccc(-c3ccco3)cc2)n(-c2ccc(S(C)(=O)=O)cc2)c1", "note": "[Example 59, 2-[4-(2-Furyl)phenyl]-4-methyl-1-[4-(methylsulfonyl)phenyl]-1H-pyrrole]", "values": [
      {"measurement": "melting point", "value": "193 to 194", "unit": "°C"}
    ]},
    {"compound": "CS(=O)(=O)c1ccc(-n2nc(C(F)(F)F)cc2-c2ccc(-c3ccco3)cc2)cc1F", "note": "[Example 60, 1-[3-Fluoro-4-(methylsulfonyl)phenyl]-5-[4-(2-furyl)phenyl]-3-(trifluoromethyl)-1H-pyrazole]", "values": [
      {"measurement": "melting point", "value": "129 to 130", "unit": "°C"}
    ]},
    {"compound": "CCOC(=O)c1cc(-c2ccc(-c3ccco3)cc2)n(-c2ccc(S(C)(=O)=O)cc2)n1", "note": "[Example 65, Ethyl 5-[4-(2-furyl)phenyl]-1-[4-(methylsulfonyl)phenyl]-1H-pyrazole-3-carboxylate]", "values": [
      {"measurement": "melting point", "value": "180.9 to 181.1", "unit": "°C"}
    ]},
    {"compound": "CS(=O)(=O)c1ccc(-n2nc(C(F)(F)F)cc2-c2ccc(-n3ccnc3)cc2)cc1", "note": "[Example 66, 5-[4-(1-Imidazolyl)phenyl]-1-[4-(methylsulfonyl)phenyl]-3-trifluoromethyl-1H-pyrazol]", "values": [
      {"measurement": "melting point", "value": "183 to 184", "unit": "°C"}
    ]},
    {"compound": "CS(=O)(=O)c1ccc(-n2nc(C(F)(F)F)cc2-c2ccc(-c3ccoc3)cc2)cc1F", "note": "[Example 85, 1-[3-Fluoro-4-(methylsulfonyl)phenyl]-5-[4-(3-furyl)phenyl]-3-(trifluoromethyl)-1H-pyrazole]", "values": [
      {"measurement": "melting point", "value": "74 to 76", "unit": "°C"}
    ]},
    {"compound": "CS(=O)(=O)c1ccc(-n2nc(C(F)(F)F)cc2-c2ccc(-c3cccs3)cc2)cc1F", "note": "[Example 86, 1-[3-Fluoro-4-(methylsulfonyl)phenyl]-5-[4-(2-thienyl)phenyl]-3-(trifluoromethyl)-1H-pyrazole]", "values": [
      {"measurement": "melting point", "value": "75 to 76", "unit": "°C"}
    ]},
    {"compound": "CS(=O)(=O)c1ccc(-n2nc(C(F)(F)F)cc2-c2ccc(-c3ccsc3)cc2)cc1F", "note": "[Example 87, 1-[3-Fluoro-4-(methylsulfonyl)phenyl]-5-[4-(3-thienyl)phenyl]-3-(trifluoromethyl)-1H-pyrazole]", "values": [
      {"measurement": "melting point", "value": "72 to 74", "unit": "°C"}
    ]},
    {"compound": "COC(=O)c1cc(-c2ccc(-c3nccs3)cc2)n(-c2ccc(S(N)(=O)=O)cc2)n1", "note": "[Example 88, Methyl 1-(4-sulfamoylphenyl)-5-[4-(2-thiazolyl)phenyl]-1H-pyrazole-3-carboxylate]", "values": [
      {"measurement": "melting point", "value": "204 to 206", "unit": "°C"}
    ]},
    {"compound": "CS(=O)(=O)c1ccc(-n2nc(C(F)(F)F)cc2-c2ccc(-c3ncco3)cc2)cc1F", "note": "[Example 96, 2-{4-[1-[3-Fluoro-4-(methylsulfonyl)phenyl]-3-(trifluoromethyl)-1H-pyrazol-5-yl]phenyl}-1,3-oxazole]", "values": [
      {"measurement": "melting point", "value": "140 to 142", "unit": "°C"}
    ]},
    {"compound": "CS(=O)(=O)c1ccc(-n2nc(C(F)(F)F)cc2-c2ccc(-c3cscn3)cc2)cc1F", "note": "[Example 99, 4-{4-[1-[3-Fluoro-4-(methylsulfonyl)phenyl]-3-(trifluoromethyl)-1H-pyrazol-5-yl]phenyl}-1,3-thiazole]", "values": [
      {"measurement": "melting point", "value": "125 to 127", "unit": "°C"}
    ]},
    {"compound": "Cc1nc(-c2ccc(-c3cc(C(F)(F)F)nn3-c3ccc(S(C)(=O)=O)c(F)c3)cc2)cs1", "note": "[Example 102, 4-{4-[1-[3-Fluoro-4-(methylsulfonyl)phenyl]-3-(trifluoromethyl)-1H-pyrazol-5-yl]phenyl}-2-methyl-1,3-thiazole]", "values": [
      {"measurement": "melting point", "value": "139 to 141", "unit": "°C"}
    ]},
    {"compound": "Cc1scnc1-c1ccc(-c2cc(C(F)(F)F)nn2-c2ccc(S(C)(=O)=O)c(F)c2)cc1", "note": "[Example 104, 4-{4-[1-[3-Fluoro-4-(methylsulfonyl)phenyl]-3-(trifluoromethyl)-1H-pyrazol-5-yl]phenyl}-5-methyl-1,3-thiazole]", "values": [
      {"measurement": "melting point", "value": "170 to 172", "unit": "°C"}
    ]},
    {"compound": "CS(=O)(=O)c1ccc(-n2nc(C(F)(F)F)cc2-c2ccc(-c3cscn3)c(F)c2)cc1F", "note": "[Example 105, 4-{4-[1-[3-Fluoro-4-(methylsulfonyl)phenyl]-3-(trifluoromethyl)-1H-pyrazol-5-yl]-2-fluorophenyl}-1,3-thiazole]", "values": [
      {"measurement": "melting point", "value": "156 to 158", "unit": "°C"}
    ]},
    {"compound": "Cc1cc(-c2cc(C(F)(F)F)nn2-c2ccc(S(C)(=O)=O)c(F)c2)ccc1-c1cscn1", "note": "[Example 106, 4-{4-[1-[3-Fluoro-4-(methylsulfonyl)phenyl]-3-(trifluoromethyl)-1H-pyrazol-5-yl]-2-methylphenyl}-1,3-thiazole]", "values": [
      {"measurement": "melting point", "value": "112 to 114", "unit": "°C"}
    ]},
    {"compound": "CS(=O)(=O)c1ccc(-n2nc(C(F)(F)F)cc2-c2ccc(-c3cscn3)c(Cl)c2)cc1F", "note": "[Example 109, 4-{2-Chloro-4-[1-[3-fluoro-4-(methylsulfonyl)phenyl]-3-(trifluoromethyl)-1H-pyrazol-5-yl]phenyl}-1,3-thiazole]", "values": [
      {"measurement": "melting point", "value": "108 to 110", "unit": "°C"}
    ]},
    {"compound": "CCOC(=O)c1cc(-c2ccc(-c3ccco3)cc2)n(-c2ccc(S(C)(=O)=O)c(F)c2)n1", "note": "[Example 126, Ethyl 1-[3-Fluoro-4-(methylsulfonyl)phenyl]-5-[4-(2-furyl)phenyl]-1H-pyrazole-3-carboxylate]", "values": [
      {"measurement": "melting point", "value": 172, "unit": "°C"}
    ]},
    {"compound": "CCOc1cc(-n2nc(C(=O)O)cc2-c2ccc(-c3ccco3)cc2)ccc1S(C)(=O)=O", "note": "[Example 127, 1-[3-Ethoxy-4-(methylsulfonyl)phenyl]-5-[4-(2-furyl)phenyl]-1H-pyrazole-3-carboxylic Acid]", "values": [
      {"measurement": "melting point", "value": "256 to 257", "unit": "°C"}
    ]},
    {"compound": "CS(=O)(=O)c1ccc(-n2nc(C(=O)O)cc2-c2ccc(-c3ccco3)cc2)cc1F", "note": "[Example 128, 1-[3-Fluoro-4-(methylsulfonyl)phenyl]-5-[4-(2-furyl)phenyl]-1H-pyrazole-3-carboxylic Acid]", "values": [
      {"measurement": "melting point", "value": "171.5 to 173", "unit": "°C"}
    ]},
    {"compound": "CS(=O)(=O)c1ccc(-n2nc(C(=O)N3CCOCC3)cc2-c2ccc(-c3ccco3)cc2)cc1F", "note": "[Example 130, 1-[3-Fluoro-4-(methylsulfonyl)phenyl]-5-[4-(2-furyl)phenyl]-3-(4-morpholinecarbonyl)-1H-pyrazole]", "values": [
      {"measurement": "melting point", "value": "221 to 222", "unit": "°C"}
    ]},
    {"compound": "CNC(=O)c1cc(-c2ccc(-c3ccco3)cc2)n(-c2ccc(S(C)(=O)=O)c(F)c2)n1", "note": "[Example 131, N-Methyl-1-[3-fluoro-4-(methylsulfonyl)phenyl]-5-[4-(2-furyl)phenyl]-1H-pyrazole-3-carboxamide]", "values": [
      {"measurement": "melting point", "value": "196 to 198", "unit": "°C"}
    ]},
    {"compound": "CS(=O)(=O)c1ccc(-n2nc(C(N)=O)cc2-c2ccc(-c3ccco3)cc2)cc1F", "note": "[Example 132, 1-[3-Fluoro-4-(methylsulfonyl)phenyl]-5-[4-(2-furyl)phenyl]-1H-pyrazole-3-carboxamide]", "values": [
      {"measurement": "melting point", "value": "239 to 240", "unit": "°C"}
    ]},
    {"compound": "NS(=O)(=O)c1ccc(-n2nc(C(F)(F)F)cc2-c2ccc(-c3ccco3)c(Cl)c2)cc1F", "note": "[Example 138, 4-[5-[3-Chloro-4-(2-furyl)phenyl]-3-(trifluoromethyl)-1H-pyrazol-1-yl]-2-fluorobenzenesulfonamide]", "values": [
      {"measurement": "melting point", "value": 171.8, "unit": "°C"}
    ]},
    {"compound": "Cc1cc(-c2cc(C(F)(F)F)nn2-c2ccc(S(N)(=O)=O)c(F)c2)ccc1-c1ccco1", "note": "[Example 139, 2-Fluoro-4-[5-[4-(2-furyl)-3-methylphenyl]-3-(trifluoromethyl)-1H-pyrazol-1-yl]benzenesulfonamide]", "values": [
      {"measurement": "melting point", "value": "78 to 80", "unit": "°C"}
    ]},
    {"compound": "Cc1ccc(-c2ccc(S(C)(=O)=O)c(F)c2)n1-c1ccc(-c2cscn2)cc1", "note": "[Example 151, 5-[3-Fluoro-4-(methylsulfonyl)phenyl]-2-methyl-1-[4-(4-thiazolyl)phenyl]-1H-pyrrole]", "values": [
      {"measurement": "melting point", "value": 215, "unit": "°C"}
    ]},
    {"compound": "CS(=O)(=O)c1ccc(-n2cc(C(F)(F)F)nc2-c2ccc(-c3cscn3)cc2)cc1F", "note": "[Example 153, 1-[3-Fluoro-4-(methylsulfonyl)phenyl]-2-[4-(4-thiazolyl)phenyl]-4-trifluoromethyl-1H-imidazole]", "values": [
      {"measurement": "melting point", "value": "112.5 to 115", "unit": "°C"}
    ]},
    {"compound": "CS(=O)(=O)c1ccc(-n2nc(C(F)(F)F)cc2-c2ccc(-c3cscn3)cc2)cc1Cl", "note": "[Example 158, 1-[3-Chloro-4-(methylsulfonyl)phenyl]-5-[4-(4-thiazolyl)phenyl]-3-trifluoromethyl-1H-pyrazole]", "values": [
      {"measurement": "melting point", "value": "103 to 107", "unit": "°C"}
    ]},
    {"compound": "CS(=O)(=O)c1ccc(-n2nccc2-c2ccc(-c3ccco3)cc2)cc1F", "note": "[Example 162, 1-[3-Fluoro-4-(methylsulfonyl)phenyl]-5-[4-(2-furyl)phenyl]-1H-pyrazole]", "values": [
      {"measurement": "melting point", "value": "155 to 156", "unit": "°C"}
    ]},
    {"compound": "CS(=O)(=O)c1ccc(-n2ncc(C#N)c2-c2ccc(-c3ccco3)cc2)cc1F", "note": "[Example 163, 4-Cyano-1-[3-fluoro-4-(methylsulfonyl)phenyl]-5-[4-(2-furyl)phenyl]-1H-pyrazole]", "values": [
      {"measurement": "melting point", "value": "153 to 157", "unit": "°C"}
    ]}
  ]
}
